# Assay results taken from EP0484785B1, “Use of xanthines for the preparation of a medicament effective for inhibiting the replication of human retroviruses” (HOECHST-ROUSSEL PHARMACEUTICALS INCORPORATED, priority 1990, dated 1992).
# Like-named read-outs stand apart in the source and are kept apart here.
# Columns and labels:
# HIV-1 [1] = assay: HIV-1 replication in acutely infected Jurkat cells, reverse transcriptase activity in cell-free supernatants; assay type: cell-based; conditions: for Reverse Transcriptase (% control): Jurkat cells, 4 h pretreatment, 7 days
# Protocol: (§1) Human Jurkat cells (a CD4⁺ T-cell lymphoma line) were grown in RPMI-1640 supplemented with 10% fetal calf serum, penicillin, streptomycin and L-glutamine. HIV-1 was produced in Jurkat cells. During the log phase of growth, cell-free supernatant was harvested, tested for RT activity (according to the method of Dayton et al., Cell 1986, 44:941-947) and frozen in aliquots at -70°C until use. Jurkat cells were pretreated with pentoxifylline at various concentrations for 4 hours after which HIV-1 (10⁴ cpm units of RT activity) was added to the cultures. The cells remained in the appropriate concentration of pentoxifylline for a total of 7 days, at which point the RT activity was measured in cell-free supernatants. In parallel, cell viability was tested by trypan blue staining of uninfected Jurkat cells treated for 7 days with various concentrations of pentoxifylline. The results are expressed as a percent of control.
# Jurkat cells = assay type: cell-based; conditions: human, 7 days
# Protocol: as §1
# HIV-1 [2] = assay: HIV-1 replication in acutely infected peripheral blood mononuclear cells, reverse transcriptase activity in cell-free supernatants; assay type: cell-based; conditions: for Reverse Transcriptase (% control): PBM, 4 h pretreatment, 7 days
# Protocol: (§2) Human peripheral blood mononuclear cells (PBM) were obtained by Ficoll-Hypaque gradient centrifugation of blood donated by normal HIV-1 sero-negative individuals. PBM were cultured in RPMI-1640 supplemented with 20% fetal calf serum, penicillin, streptomycin and L-glutamine. After stimulating cells overnight with 15 µg/ml of concanavalin A, they were maintained in 10 units/ml interleukin-2 (IL-2) for the duration of the assay. To test for the inhibition of HIV-1 replication in PBM by pentoxifylline, PBM were pretreated with various concentrations of pentoxifylline for 4 hours after which HIV-1 (10⁴ cpm units of RT activity) was added to the cultures. The cells remained in the appropriate concentrations of the drug for a total of 7 days at which point the RT activity was measured in cell-free supernatants. In parallel, the cytotoxicity was analyzed by trypan blue staining of uninfected PBM treated for 7 days with various concentrations of pentoxifylline. The results are expressed as percent of untreated controls.
# HIV-1 LTR = assay: HIV-1 LTR-mediated gene expression, CAT activity in U38 cells; assay type: cell-based, human; design: CAT activity: unit not given here; conditions: for CAT activity: 2 days
# Protocol: Down-regulation of gene expression mediated by the HIV-1 LTR: U38 cells (Felber BK, Pavlakis GN. Science 1988, 239:184-187) were cultured in the presence or absence of 10 ng/ml phorbol-12-myristate-13-acetate (PMA). U38 cells were derived from the monocytoid human cell line U937 and contain integrated copies of the HIV-1 LTR ligated to the chloramphenicol acetyl transferase (CAT) gene. These cells have been kindly provided by Dr. Barbara Felber (National Cancer Institute, Frederick, Maryland, USA). Two hours later, the cells were washed once in phosphate-buffered saline (PBS) and cultured in the presence of various concentrations of pentoxifylline. After 2 days, cell viability was tested by trypan blue staining, and the activity of CAT was measured as described previously (Sodroski, J. et al., Science 1985, 227:171-173) after standardizing the cell extracts for protein content.
# [3] = test system: peripheral blood mononuclear cells (PBM); assay type: cell-based; conditions: human, 7 days
# Protocol: as §2
compound,measurement,setting,value
"CC(=O)CCCCn1c(=O)c2c(ncn2C)n(C)c1=O [Pentoxifylline, pentoxifylline]",HIV-1 replication as measured by reverse transcriptase activity,HIV-1 [1]; Jurkat cells acutely infected with HIV,decreased
same,Reverse Transcriptase (% control),HIV-1 [1]; pentoxifylline 50 micromolar,84.6 % control
same,Reverse Transcriptase (% control),HIV-1 [1]; pentoxifylline 100 micromolar,72.9 % control
same,Reverse Transcriptase (% control),HIV-1 [1]; pentoxifylline 500 micromolar,69.5 % control
same,Reverse Transcriptase (% control),HIV-1 [1]; pentoxifylline 1000 micromolar,55.0 % control
same,Cell viability,Jurkat cells,> 95%
same,Reverse Transcriptase (% control),HIV-1 [2]; pentoxifylline 25 micromolar,75.5 % control
same,Reverse Transcriptase (% control),HIV-1 [2]; pentoxifylline 50 micromolar,72.9 % control
same,Reverse Transcriptase (% control),HIV-1 [2]; pentoxifylline 250 micromolar,30.0 % control
same,Reverse Transcriptase (% control),HIV-1 [2]; pentoxifylline 500 micromolar,22.7 % control
same,Reverse Transcriptase (% control),HIV-1 [2]; pentoxifylline 1000 micromolar,18.6 % control
same,HIV-1 replication as measured by reverse transcriptase activity,HIV-1 [2]; peripheral blood mononuclear cells acutely infected with HIV-1,decreased
same,CAT activity,"HIV-1 LTR; Phorbol ester-non-stimulated, pentoxifylline 50 micromolar",4.91
same,CAT activity,"HIV-1 LTR; Phorbol ester-non-stimulated, pentoxifylline 100 micromolar",3.75
same,CAT activity,"HIV-1 LTR; Phorbol ester-non-stimulated, pentoxifylline 500 micromolar",2.95
same,CAT activity,"HIV-1 LTR; Phorbol ester-non-stimulated, pentoxifylline 1000 micromolar",2.81
same,CAT activity,"HIV-1 LTR; Phorbol ester-stimulated (10 ng/ml PMA), pentoxifylline 50 micromolar",50.4
same,CAT activity,"HIV-1 LTR; Phorbol ester-stimulated (10 ng/ml PMA), pentoxifylline 100 micromolar",23.9
same,CAT activity,"HIV-1 LTR; Phorbol ester-stimulated (10 ng/ml PMA), pentoxifylline 500 micromolar",20.3
same,CAT activity,"HIV-1 LTR; Phorbol ester-stimulated (10 ng/ml PMA), pentoxifylline 1000 micromolar",19.5
same,chloramphenicol transacetylase activity (CAT),"HIV-1 LTR; U38 cells, whether or not first pretreated with phorbol ester",decreased
same,Viability (% control),[3]; 50 micromolar,93.5 % control
same,Viability (% control),[3]; 500 micromolar,84.8 % control
same,Viability (% control),[3]; 1000 micromolar,50.0 % control
